Consider 39 molecules from BindingDB's records for patent US20240335431 (Acerta Pharma, 2024).

In this test the target is T1, Menin (Homo sapiens, UniProt O00255).
T1 sequence (O00255 whole entry): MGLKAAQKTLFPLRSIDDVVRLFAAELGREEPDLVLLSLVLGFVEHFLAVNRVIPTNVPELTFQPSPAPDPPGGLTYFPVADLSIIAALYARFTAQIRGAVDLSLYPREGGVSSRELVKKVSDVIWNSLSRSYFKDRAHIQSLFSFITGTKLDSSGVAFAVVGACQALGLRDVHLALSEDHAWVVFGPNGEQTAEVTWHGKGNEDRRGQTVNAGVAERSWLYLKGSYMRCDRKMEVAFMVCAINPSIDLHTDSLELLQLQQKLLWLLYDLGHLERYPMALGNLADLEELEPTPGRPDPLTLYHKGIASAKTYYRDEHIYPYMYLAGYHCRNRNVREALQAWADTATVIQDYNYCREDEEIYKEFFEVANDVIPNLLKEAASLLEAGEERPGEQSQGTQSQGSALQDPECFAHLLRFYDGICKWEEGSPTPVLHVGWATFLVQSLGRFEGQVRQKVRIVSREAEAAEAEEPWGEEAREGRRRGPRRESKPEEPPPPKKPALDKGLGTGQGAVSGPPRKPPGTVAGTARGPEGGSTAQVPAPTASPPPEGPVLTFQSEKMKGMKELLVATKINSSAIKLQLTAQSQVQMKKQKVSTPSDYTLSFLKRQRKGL
The test is described as follows: Fluorescence Polarization (FP) Assay. On the procedure: Compounds were tested in a biochemical binding assay using Menin protein at 2 nM (N6his-tev-Menin_4i80, PB-20-1459) and the substrate cRho110-Ahx-MBM1/MBM2 peptide (UbiQ, UbiQ-Q20201030; cRh110-Ahx-[…]-QRVPALLLPPG-NH2) at 1 nM.384 Low volume black plates (Corning #4514) were used. 5 μL/well compound or 3% DMSO was added at 10-fold serial dilutions in DMSO from 10 μM. 5 μL/well cRho110-Ahx-MBM1/MBM2 peptide or binding buffer (50 mM Tris pH 7.5, 50 mM NaCl, 1 mM TCEP, 0.01% BGG, 0.01% Brij-35) was added to all wells. 5 μL/well Menin protein or binding buffer (50 mM Tris pH 7.5, 50 mM NaCl, 1 mM TCEP, 0.01% BGG, 0.01% Brij-35) was added to all wells. Plates were read on an EnVision plate reader (Perkin Elmer) with excitation at 480 nm and emission at 535 nm P+S, and measured every 5 minutes for 180 minutes.
In general terms: Polarisation of emitted light reports the rotation of a fluorescent probe.
As usually defined, the IC50 is the midpoint of a concentration-inhibition curve. A higher IC50 goes with weaker potency. `CCN(C(=O)c1cc(F)ccc1-n1c(C)c(C(=O)C2CCN(C(=O)[C@@H]3CCC(C)(C)N3)CC2)c2ccncc21)C(C)C` (single isomer, unassigned) [US20240335431, Example 50-1]: the half-maximal inhibitory concentration (IC50) stood at 5.5 µM. The same measure for `Cc1c(C(=O)C2CCN(C(=O)[C@@H]3CC[C@H](C)N3)CC2)c2ccncc2n1-c1ccc(F)cc1C(=O)N(C(C)C)C(C)C` [US20240335431, Example 60]: 0.105 µM; for `CC(C)N(C(=O)c1cc(F)ccc1-n1cc(C(=O)C2CCN(C(=O)[C@H]3N[C@H]4C[C@@H]3[C@@H](F)C4)CC2)c2ccncc21)C(C)C` [US20240335431, Example 22]: 0.025 µM; for `CCN(C(=O)c1cc(F)ccc1-n1c(C)c(C(=O)[C@@H]2CCN(C(=O)[C@@H]3CC[C@H](C)N3)[C@@H](C)C2)c2ccncc21)C(C)C` [US20240335431, Example 63]: 0.059 µM. Take `Cc1c(C(=O)C2CCN(C(=O)[C@H]3NC[C@@H]4C[C@@H]43)CC2)c2ccncc2n1-c1ccc(F)cc1C(=O)N(C(C)C)C(C)C` (single isomer, unassigned) [US20240335431, Example 55-1]: it took 1.34 µM to reach half-maximal inhibition (IC50).

`CC(C)c1ncsc1-c1cc(F)ccc1-n1cc(C(=O)C2CCN(C(=O)[C@H]3N[C@@H]4CC[C@H]3C4)CC2)c2ccncc21` [US20240335431, Example 42] had an IC50 of 0.009 µM.

Molecule `CC(C)N(C(=O)c1cc(F)ccc1-n1cc(C(=O)C2CCN(C(=O)[C@H]3NC[C@@H]4CC[C@@H]43)CC2)c2ccncc21)C(C)C` (relative stereo) [US20240335431, Example 25] had an IC50 of 0.027 µM.

`CCN(C(=O)c1cc(F)ccc1-n1c(C)c(C(=O)C2CCN(C(=O)[C@H]3N[C@@H]4CC[C@H]3C4)CC2)c2ccncc21)C(C)C` [US20240335431, Example 46] returned a concentration for half-maximal inhibition (IC50) of 0.034 µM. `CC(C)N(C(=O)c1cc(F)ccc1-n1cc(C(=O)[C@@H]2CCCN(C(=O)[C@H]3N[C@@H]4CC[C@H]3C4)CC2)c2ccncc21)C(C)C` (relative stereo) [US20240335431, Example 45] displayed a half-inhibitory concentration (IC50) of 0.036 µM.

Take `COCCN(C)CCC[C@H](C(C)C)N1CCC(C(=O)c2cn(-c3ccc(F)cc3C(=O)N(C(C)C)C(C)C)c3cnccc23)CC1` (racemic) [US20240335431, Example 23]: half-maximal inhibition (IC50) was put at 0.007 µM. As for `CC(C)N(C(=O)c1cc(F)ccc1-n1cc(C(=O)C2CN(C(=O)[C@H]3N[C@@H]4CC[C@H]3C4)C2)c2ccnnc21)C(C)C` [US20240335431, Example 14], the IC50 came to 0.139 µM. Consider `CC(C)c1ncsc1-c1cc(F)ccc1-n1cc(C(=O)C2CN(C(=O)[C@H]3N[C@@H]4CC[C@H]3C4)C2)c2ccncc21` [US20240335431, Example 12], for which 0.006 µM corresponded to half-maximal inhibition (IC50). As to `CC(C)N(C(=O)c1cc(F)ccc1-n1cc(C(=O)C2CN(C(=O)[C@H]3N[C@@H]4CC[C@H]3C4)C2)c2ccncc21)C(C)C` [US20240335431, Example 5], the concentration for half-maximal inhibition (IC50) is 0.018 µM. The same measure for `Cc1c(C(=O)C2CCN(C(=O)[C@H]3NC[C@@H]4C[C@@H]43)CC2)c2ccncc2n1-c1ccc(F)cc1-c1cnccc1C(C)C` [US20240335431, Example 54]: 0.015 µM.

`CC(C)N(C(=O)c1cc(F)ccc1-n1cc(C(=O)C2CN(C(=O)[C@H]3N[C@@H]4CC[C@H]3C4)C2)c2ccnc(F)c21)C(C)C` [US20240335431, Example 15] yielded a concentration for half-maximal inhibition (IC50) of 0.017 µM. Then `CC(C)N(C(=O)c1cc(F)ccc1-n1cc(C(=O)C2CCN(C(=O)[C@H]3NC[C@@H]4C[C@@H]43)CC2)c2ccncc21)C(C)C` [US20240335431, Example 19], with 0.016 µM; and `CCN(C(=O)c1cc(F)ccc1-n1c(C)c(C(=O)C2CCN(C(=O)[C@@H]3CCC4(CC4)N3)CC2)c2ccncc21)C(C)C` (single isomer, unassigned) [US20240335431, Example 49-1], with 2.14 µM; and `CCN(C(=O)c1cc(F)ccc1-n1c(C)c(C(=O)C2CCN(C(=O)[C@H]3NC[C@@H]4C[C@@H]43)CC2)c2ccncc21)C(C)C` [US20240335431, Example 47], with 0.015 µM.

For the molecule `CC(C)N(C(=O)c1cc(F)ccc1-n1cc(C(=O)[C@@H]2CCN(C[C@H]3CC[C@H](NS(C)(=O)=O)CC3)C2)c2ccncc21)C(C)C` [US20240335431, Example 4], it took 0.054 µM to reach half-maximal inhibition (IC50).

Regarding `CCN(C(=O)c1cc(F)ccc1-n1cc(C(=O)C2CN(C(=O)[C@H]3NC4CCC3CC4)C2)c2ccncc21)C(C)C` [US20240335431, Example 9], the IC50 was found to be 0.051 µM. `CC(C)c1ncccc1-c1cc(F)ccc1-n1cc(C(=O)C2CCN(C(=O)[C@H]3N[C@@H]4CC[C@H]3C4)CC2)c2ccncc21` [US20240335431, Example 38] had a 50% inhibitory concentration (IC50) of 0.013 µM.

On to `CC(C)n1nccc1-c1cc(F)ccc1-n1cc(C(=O)C2CCN(C(=O)[C@H]3N[C@@H]4CC[C@H]3C4)CC2)c2ccncc21` [US20240335431, Example 36], for which the half-maximal inhibitory concentration (IC50) was 0.024 µM. `CC(C)N(C(=O)c1cc(F)ccc1-n1cc(C(=O)C2CN(C(=O)[C@H]3N[C@H]4C[C@@H]3[C@@H](F)C4)C2)c2ccncc21)C(C)C` [US20240335431, Example 7]: the concentration for half-maximal inhibition (IC50) is 0.024 µM.

On to `CC(C)(F)c1ncccc1-c1cc(F)ccc1-n1cc(C(=O)C2CN(C(=O)[C@H]3N[C@@H]4CC[C@H]3C4)C2)c2ccncc21` [US20240335431, Example 13], for which the IC50 was 0.004 µM.

`CC(C)N(C(=O)c1cc(F)ccc1-n1cc(C(=O)C2CCN(C(=O)[C@@H]3CCC(C)(C)N3)CC2)c2ccncc21)C(C)C` [US20240335431, Example 27]: the 50% inhibitory concentration (IC50) came out at 0.025 µM. In turn, `CCN(C(=O)c1cc(F)ccc1-n1cc(C(=O)C2CCN(C(=O)[C@H]3N[C@H]4C[C@@H]3[C@@H](F)C4)CC2)c2ccncc21)C(C)C` [US20240335431, Example 30] came in with a half-inhibitory concentration (IC50) of 0.017 µM.

For `CC(C)c1ccncc1-c1cc(F)ccc1-n1cc(C(=O)C2CCN(C(=O)[C@H]3N[C@@H]4CC[C@H]3C4)CC2)c2ccncc21` [US20240335431, Example 41], half-maximal inhibition (IC50) required 0.01 µM. Consider `CC(C)c1ccccc1-c1cc(F)ccc1-n1cc(C(=O)C2CCN(C(=O)[C@H]3N[C@@H]4CC[C@H]3C4)CC2)c2ccncc21` [US20240335431, Example 39], for which the IC50 stood at 0.007 µM. `CCN(C(=O)c1cc(F)ccc1-n1cc(C(=O)C2CCN(C(=O)[C@H]3N[C@@H]4CC[C@H]3C4)CC2)c2ccncc21)C(C)C` [US20240335431, Example 31] registered an IC50 of 0.01 µM. Regarding `O=C(c1cn(-c2ccc(F)cc2-c2cncnc2C2CC2)c2cnccc12)C1CCN(C(=O)[C@H]2N[C@@H]3CC[C@H]2C3)CC1` [US20240335431, Example 40], the concentration for half-maximal inhibition (IC50) was found to be 0.018 µM. As for `CC(C)N(C(=O)c1cc(F)ccc1-n1cc(C(=O)C2CCN(C(=O)[C@@H]3CC4(CC4)CN3)CC2)c2ccncc21)C(C)C` [US20240335431, Example 26], the IC50 turned out to be 0.043 µM. As for `CCN(C(=O)c1cc(F)ccc1-n1c(C)c(C(=O)[C@@H]2CCN(C(=O)[C@@H]3CC[C@@H](C)N3)[C@@H](C)C2)c2ccncc21)C(C)C` [US20240335431, Example 65], half-maximal inhibition (IC50) required 0.079 µM. For `Cc1c(C(=O)[C@@H]2CCN(C(=O)[C@@H]3CC[C@H](C)N3)[C@@H](C)C2)c2ccncc2n1-c1ccc(F)cc1C(=O)N(C(C)C)C(C)C` [US20240335431, Example 62], the IC50 worked out at 0.076 µM. In turn, `CC(C)N(C(=O)c1cc(F)ccc1-n1cc(C(=O)C2CCN(C(=O)[C@H]3N[C@@H]4CC[C@H]3C4)CC2)c2c(F)cncc21)C(C)C` [US20240335431, Example 44] had a 50% inhibitory concentration (IC50) of 0.058 µM. With `CC(C)N(C(=O)c1cc(F)ccc1-n1cc(C(=O)C2CCN(C(=O)[C@H]3N[C@@H]4CC[C@H]3C4)CC2)c2ccncc21)C(C)C` [US20240335431, Example 16], the IC50 worked out at 0.021 µM. Regarding `C[C@@H]1CC[C@H](C)N1C(=O)c1cc(F)ccc1-n1cc(C(=O)C2CCN(C(=O)[C@H]3N[C@@H]4CC[C@H]3C4)CC2)c2ccncc21` [US20240335431, Example 32], the IC50 is 0.036 µM. On to `Cc1c(C(=O)C2CCN(C(=O)[C@@H]3CCC(C)(C)N3)CC2)c2ccncc2n1-c1ccc(F)cc1C(=O)N(C(C)C)C(C)C` (single isomer, unassigned) [US20240335431, Example 56-1], for which half-maximal inhibition (IC50) required 2.15 µM. Then `CC(C)N(C(=O)c1cc(F)ccc1-n1cc(C(=O)[C@H]2CCN(C(=O)[C@H]3N[C@@H]4CC[C@H]3C4)C2)c2ccncc21)C(C)C` [US20240335431, Example 2], with 0.047 µM. In turn, `CCN(C(=O)c1cc(F)ccc1-n1cc(C(=O)C2CN(C(=O)[C@H]3N[C@@H]4CC[C@H]3C4)C2)c2ccncc21)C(C)C` [US20240335431, Example 8] displayed an IC50 of 0.027 µM.
